Tests used:
[1] = test system: anti-BSA antibody (sandwich ELISA); assay: BSA ELISA characterization; assay type: binding; conditions: several concentrations over the sampling range
Protocol: Several concentrations were compared over the sampling range of the assays (FIG. 30). […] ELISA relies upon protein-protein interactions, thus providing insight into the preservation of the protein's binding motifs.
The solution was then dialyzed against water for 2 h to remove GSH. […] Absorbance was measured with a SpectraMax M5 plate reader (Molecular Devices) at 450 nm.

[2] = Regeneration of tyramine after disulfide cleavage with DTT (GC-MS); assay type: physicochemical; conditions: 50 mM DTT in PBS
Protocol: Two tyramine molecules were reacted with DIC in isopropanol, which completely simulates the cross-linking conditions for protein-based particles (FIG. 26). The commercially available disulfide crosslinker DSP was used as a control in this study. The dimer products were denoted as tyramine-DIC and tyramine-DSP, respectively. Both compounds were treated with 50 mM of dithiothreitol (DTT) in phosphate buffer saline (PBS) to cleave the disulfide bond. […] In addition, ^1H-NMR and high-resolution mass spectrometry confirmed the structure of tyramine recovered after DTT treatment of tyram tyramine-DIC. (SI) Therefore, all the aforementioned results support the successful design of the novel DIC crosslinker.
Tyramine (0.24 g, 1.75 mmol) was added to a solution of DIC (0.12 g, 0.35 mmol) in isopropanol (15 mL). The reaction mixture was stirred for 24 h at 40° C. The mixture was concentrated and purified by column chromatography (EtOAc) to give tyramine-DIC ([…]) as light yellow solid. Tyramine (0.24 g, 1.75 mmol) was added to a solution of DSP (0.14 g, 0.35 mmol) in DMF (4 mL). The reaction mixture was stirred for 24 h at 40° C. […] The supernatants from the solutions were collected and analyzed by gas chromatography-mass spectrometry (Alilent Technologies 5975 series MSD, 7820A GC system) and untreated tyramine was used as standard.

| Molecule | absorbance in BSA ELISA compared with native albumin [1] | regeneration of tyramine after cleavage of the disulfide bond [2] |
| --- | --- | --- |
| albumin dissolved from the cross-linked particles: BSA released from DIC-cross-linked PRINT BSA particles in PBS with 5 mM glutathione | very similar absorbance |  |
| denatured free protein: heat denatured BSA | significantly less total absorbance |  |
| O=C(CCSSCCC(=O)NCCc1ccc(O)cc1)NCCc1ccc(O)cc1 [tyramine-DSP] |  | No peak of tyramine was observed |

From patent US20140081012A1, “NANOPARTICLE, LIPOSOMES, POLYMERS, AGENTS AND PROTEINS MODIFIED WITH REVERSIBLE LINKERS” (THE UNIVERSITY OF NORTH CAROLINA AT CHAPEL HILL, priority 2011, published 2014)
